Reference: patent US20030199558A1, “Hydroxamic acid and its derivatives as inhibitors of melanocyte tyrosinase for topical skin lighteners” (Integriderm, Inc., priority 2001, published 2003)
≈ marks a conversion by molar mass, not a printed value. Where “and” joins values, the source holds several entries; their conditions need not be identical. Equal values may be shown once. Read-outs that look alike come from different tables or passages of the source.

Columns and labels:
[1] = target: T1, mammalian tyrosinase (Mus musculus, UniProt P11344); assay: cell-free mammalian tyrosinase enzyme assay; assay type: biochemical; conditions: cell-free enzyme extract; read-out: E: concentration of compound that produces 50% inhibition in the cell-free mammalian tyrosinase enzyme assay
T1 construct: Cellular lysates of Mel-Ab cells may be used as tyrosinase enzyme preparations; endogenous in cells; host or cells: Mel-Ab mouse melanocytes (cell lysate)
T1 sequence (P11344 19-533): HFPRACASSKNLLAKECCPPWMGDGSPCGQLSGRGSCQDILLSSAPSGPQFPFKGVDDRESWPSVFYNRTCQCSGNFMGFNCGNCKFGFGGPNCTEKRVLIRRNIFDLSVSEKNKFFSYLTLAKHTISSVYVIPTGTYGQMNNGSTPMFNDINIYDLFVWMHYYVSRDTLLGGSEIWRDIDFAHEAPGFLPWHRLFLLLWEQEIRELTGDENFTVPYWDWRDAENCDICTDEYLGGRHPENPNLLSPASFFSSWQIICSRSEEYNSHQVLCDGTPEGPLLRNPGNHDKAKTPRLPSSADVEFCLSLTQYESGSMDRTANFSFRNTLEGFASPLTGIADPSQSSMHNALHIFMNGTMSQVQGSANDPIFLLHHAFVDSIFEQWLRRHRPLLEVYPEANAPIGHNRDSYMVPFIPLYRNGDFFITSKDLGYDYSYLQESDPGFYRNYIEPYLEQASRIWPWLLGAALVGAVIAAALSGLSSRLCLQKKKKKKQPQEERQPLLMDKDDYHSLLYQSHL
From the text: (§1) In the present invention, one or more of three in vitro bioassays can be utilized to evaluate the efficacy and toxicity of candidate skin-lightening compounds. The three bioassays characterize the compounds with regard to mammalian tyrosinase enzyme inhibition (cell free), pigmentation in cultured melanocyte cells, and cytotoxicity of mammalian cultured cells. Both cell-based pigmentation and cell-free enzymatic assays have been developed using the mammalian melanocyte cell line, Mel-Ab, a C57BL/6 mouse-derived cell line that produces high levels of melanin. A distinct advantage of this approach is that humans share substantial sequence similarities in their genes (DNA) and proteins (such as tyrosinase) with mice, relative to non-mammalian species (e.g., mushrooms). So, in vitro mouse Mel-Ab melanocytes can serve as adequate surrogates for human melanocytes and Mel-Ab-derived tyrosinase may substitute for the human enzyme for many pharmacologic purposes.
(§2) These adherent murine melanocytes are grown on tissue culture plastic in medium supplemented with fetal bovine serum, 12-O-tetradecanoylphorbol-13-acetate (TPA) to stimulate cell division via down-regulation of protein kinase C, [22, 23] and cholera toxin to stimulate adenylate cyclase activity in the absence of α-MSH. Cellular lysates of Mel-Ab cells may be used as tyrosinase enzyme preparations. Multi-well plate assays have been validated for enzyme inhibition (e.g., DOPA oxidation by calorimetric measurement or radiolabeled substrate incorporation into melanin) and for pigmentation assays on cultured Mel-Ab cells. After 4-6 days of treatment of cultured cells, melanin content is determined using a spectrophotometer at 400+ nm. This assay can detect an apparent loss in pigmentation resulting from either inhibition of de novo synthesis (e.g. via inhibition of tyrosinase, or the adenylate cyclase pathway, or another pathway) or a cytostatic/cytotoxic mechanism. It is therefore a broad primary screen. It is used in parallel with the tyrosinase enzymatic assay to determine whether an inhibitor of pigmentation at the cellular level is acting primarily at the enzyme level.
A first class of compounds based upon the template compound benzohydroxamic acid were tested for tyrosinase inhibition by methods described in Curto, E. V., et al. (1999). Results of the tests are given in Examples 1-5.
(§3) Inhibition [μM] as measured in three assays. Here “E” “E” [μM] is the concentration of compound that produces 50% inhibition in the cell-free mammalian tyrosinase enzyme assay is the concentration of compound that produces 50% inhibition in the cell-free mammalian tyrosinase enzyme assay. “P” represents the concentration of compound that produces 50% inhibition in the mammalian Mel Ab melanocyte culture pigment assay system. “T” is the concentration of compound that results in 50% reduction in cell number in the mammalian melanocyte culture toxicity assay system.

[2] = tested on: Mel Ab melanocyte; assay: mammalian Mel Ab melanocyte culture pigment assay; assay type: cell-based, mouse; conditions: read-out: P: concentration of compound that produces 50% inhibition in the mammalian Mel Ab melanocyte culture pigment assay
From the text: as §1, §2, §3

[3] = tested on: mammalian melanocyte culture; assay: mammalian melanocyte culture toxicity assay; assay type: cell-based, mouse
From the text: To determine cytotoxicity (and/or cytostasis), crystal violet or other staining methods may be used to quantify adherent cell numbers following a period of treatment by an agent.

[4] = target: T1, mammalian tyrosinase; conditions: cited from earlier work
[5] = tested on: Mel Ab melanocyte; conditions: cited from earlier work
[6] = tested on: mammalian melanocyte culture; conditions: cited from earlier work

Compound: COc1ccc(C(=O)N[O-])cc1OC.[K+] [ID-458, Potassium salt of 3,4-dimethoxy-benzohydroxamic acid]
- IC50 [1]: 23 µM
- IC50 [2]: 637 µM
- T: concentration of compound that results in 50% reduction in cell number in the mammalian melanocyte culture toxicity assay [3]: 624 µM

Compound: CC(=O)c1ccc(O)c(C(=O)NO)c1 [ID-474]
- IC50 [1]: 51 µM
- IC50 ([2]; Mus musculus, Mel-Ab): > 1000 µM
- T: concentration of compound that results in 50% reduction in cell number in the mammalian melanocyte culture toxicity assay [3]: >1000 µM

Compound: Nc1ccc(C(=O)NO)cc1 [ID-476, 4-Aminobenzohydroxamic acid]
- IC50 [1]: 0.34 µM
- IC50 ([2]; Mus musculus, Mel-Ab): 64 µM
- T: concentration of compound that results in 50% reduction in cell number in the mammalian melanocyte culture toxicity assay [3]: 550 µM

Compound: CC(=O)Nc1cccc(C(=O)NO)c1 [ID-486, 3-Acetamidobenzohydroxamic acid]
- IC50 [1]: 5.3 µM
- IC50 ([2]; Mus musculus, Mel-Ab): 369 µM
- T: concentration of compound that results in 50% reduction in cell number in the mammalian melanocyte culture toxicity assay [3]: >1000 µM

Compound: CC(=O)Nc1ccccc1C(=O)NO [ID-484, 2-Acetamidobenzohydroxamic acid]
- IC50 [1]: > 231 µM
- IC50 ([2]; Mus musculus, Mel-Ab): > 1000 µM
- T: concentration of compound that results in 50% reduction in cell number in the mammalian melanocyte culture toxicity assay [3]: >1000 µM

Compound: Cc1cccc(C(=O)N(C)O)c1 [ID-485, 3,N-Dimethylbenzohydroxamic acid]
- IC50 [1]: 68 µM
- IC50 ([2]; Mus musculus, Mel-Ab): > 1000 µM
- T: concentration of compound that results in 50% reduction in cell number in the mammalian melanocyte culture toxicity assay [3]: >1000 µM

Compound: COc1ccc(C(=O)N[O-])cc1.[K+] [ID-479, Potassium salt of 4-methoxybenzohydroxamic acid]
- IC50 [1]: 1.67 µM
- IC50 [2]: 43 µM
- T: concentration of compound that results in 50% reduction in cell number in the mammalian melanocyte culture toxicity assay [3]: 64 µM

Compound: Cc1ccc(C(=O)NO)cc1N [ID-499, 13-Amino-4-methyl-benzohydroxamic acid]
- IC50 [1]: 6.4 µM
- IC50 ([2]; Mus musculus, Mel-Ab): 177 µM
- T: concentration of compound that results in 50% reduction in cell number in the mammalian melanocyte culture toxicity assay [3]: 747 µM

Compound: Oc1ccc(O)cc1 [hydroquinone]
- enzymatic inhibition [4]: minimal enzymatic inhibition
- IC50 on Mel-Ab culture ([5]; positive control, owing to cytotoxicity and not inhibition of pigmentation per se): low micrograms per milliliter range
- melanocyte cytotoxicity [6]: potent melanocyte cytotoxicity

Compound: COC(=O)c1cc(O)ccc1O [methyl gentisate]
- IC50 ([4]; Curto et al. (1999), read-out: IC50 against tyrosinase in cell-free assays (converted)): 67 µM and 66.6 µM
- IC50 in pigmentation inhibition in melanocyte cell cultures ([5]; Curto et al. (1999)): 30.9 ± 5 µg/mL (≈ 184 µM)
- IC50 ([5]; Curto et al. (1999), read-out: IC50 in pigmentation inhibition in melanocyte cell cultures): 184 µM
- melanocyte cytotoxicity IC50 ([6]; Curto et al. (1999)): 118.7 ± 12 µg/mL
- IC50 ([6]; Curto et al. (1999), read-out: melanocyte cytotoxicity IC50): 707 µM

Compound: COc1ccc(C(=O)NO)cc1 [ID-480, 4-Methoxybenzohydroxamic acid]
- IC50 [1]: 1.26 µM
- IC50 ([2]; Mus musculus, Mel-Ab): 57 µM
- T: concentration of compound that results in 50% reduction in cell number in the mammalian melanocyte culture toxicity assay [3]: 170 µM

Compound: COc1cccc(C(=O)NO)c1 [ID-478, 3-Methoxybenzohydroxamic acid]
- IC50 [1]: 0.91 µM
- IC50 ([2]; Mus musculus, Mel-Ab): 148 µM
- T: concentration of compound that results in 50% reduction in cell number in the mammalian melanocyte culture toxicity assay [3]: 580 µM

Compound: COc1ccccc1C(=O)NO [ID-483, 2-Methoxybenzohydroxamic acid]
- IC50 [1]: 32 µM
- IC50 ([2]; Mus musculus, Mel-Ab): 807 µM
- T: concentration of compound that results in 50% reduction in cell number in the mammalian melanocyte culture toxicity assay [3]: 900 µM

Compound: COc1ccc(C(=O)NO)c(O)c1 [ID-462]
- IC50 [1]: 3.6 µM
- IC50 ([2]; Mus musculus, Mel-Ab): > 1000 µM
- T: concentration of compound that results in 50% reduction in cell number in the mammalian melanocyte culture toxicity assay [3]: >1000 µM

Compound: CCCCOc1ccc(C(=O)NO)cc1 [ID-477, 4-Butoxybenzohydroxamic acid]
- IC50 [1]: 12 µM
- IC50 ([2]; Mus musculus, Mel-Ab): 326 µM
- T: concentration of compound that results in 50% reduction in cell number in the mammalian melanocyte culture toxicity assay [3]: >554 µM

Compound: O=C(NO)c1ccncc1 [ID-245]
- IC50 [1]: 3.2 µM
- IC50 ([2]; Mus musculus, Mel-Ab): 183 µM
- T: concentration of compound that results in 50% reduction in cell number in the mammalian melanocyte culture toxicity assay [3]: 566 µM

Compound: Nc1ccccc1C(=O)NO [ID-318, 2-Aminobenzohydroxamic acid]
- IC50 [1]: 19 µM
- IC50 ([2]; Mus musculus, Mel-Ab): 431 µM
- T: concentration of compound that results in 50% reduction in cell number in the mammalian melanocyte culture toxicity assay [3]: 600 µM

Compound: O=C(NO)c1cccc(Oc2ccccc2)c1 [ID-500, 3-Phenoxybenzohydroxamic acid]
- IC50 [1]: 0.16 µM
- IC50 ([2]; Mus musculus, Mel-Ab): 234 µM
- T: concentration of compound that results in 50% reduction in cell number in the mammalian melanocyte culture toxicity assay [3]: >300 µM

Compound: O=C(NO)c1ccccc1O [ID-282, Salicylhydroxamic acid]
- IC50 [1]: 3.7 µM
- T: concentration of compound that results in 50% reduction in cell number in the mammalian melanocyte culture toxicity assay [3]: 974 µM

Compound: Cc1ccc(C(=O)NO)cc1 [ID-497, 4-Methylbenzohydroxamic acid]
- IC50 [1]: 0.29 µM
- IC50 ([2]; Mus musculus, Mel-Ab): 45 µM
- T: concentration of compound that results in 50% reduction in cell number in the mammalian melanocyte culture toxicity assay [3]: 160 µM

Compound: O=C(NO)c1ccccc1 [ID-357, Benzohydroxamic acid]
- IC50 [1]: 0.82 µM
- IC50 ([2]; Mus musculus, Mel-Ab): 64 µM
- T: concentration of compound that results in 50% reduction in cell number in the mammalian melanocyte culture toxicity assay [3]: 64 µM

Compound: CN(C)c1ccc(C(=O)NO)cc1 [ID-498, 4-Dimethylaminobenzo-hydroxamic acid]
- IC50 [1]: 2.2 µM
- IC50 ([2]; Mus musculus, Mel-Ab): 44 µM
- T: concentration of compound that results in 50% reduction in cell number in the mammalian melanocyte culture toxicity assay [3]: 136 µM

Compound: COc1ccc(C(=O)NO)cc1OC [ID-456, 3,4-Dimethoxybenzohydroxamic acid]
- IC50 [1]: 15 µM
- IC50 ([2]; Mus musculus, Mel-Ab): 576 µM
- T: concentration of compound that results in 50% reduction in cell number in the mammalian melanocyte culture toxicity assay [3]: 641 µM

Compound: Cc1cccc(C(=O)NO)c1 [ID-481, 3-Methylbenzohydroxamic acid]
- IC50 [1]: < 0.25 µM
- IC50 ([2]; Mus musculus, Mel-Ab): 60 µM
- T: concentration of compound that results in 50% reduction in cell number in the mammalian melanocyte culture toxicity assay [3]: 522 µM

Compound: Nc1cccc(C(=O)NO)c1 [ID-461, 3-Aminobenzohydroxamic acid]
- IC50 [1]: 4 µM
- IC50 ([2]; Mus musculus, Mel-Ab): 225 µM
- T: concentration of compound that results in 50% reduction in cell number in the mammalian melanocyte culture toxicity assay [3]: >1000 µM

Compound: O=C(NO)c1cccc(Cl)c1 [ID-482, 3-Chlorobenzohydroxamic acid]
- IC50 [1]: < 0.25 µM
- IC50 ([2]; Mus musculus, Mel-Ab): 40 µM
- T: concentration of compound that results in 50% reduction in cell number in the mammalian melanocyte culture toxicity assay [3]: 577 µM
